Results: patent publication US9850283B2, “Macrocyclic inhibitors of the PD-1/PD-L1 and CD80(B7-1)/PD-L1 protein/protein interactions” (BRISTOL-MYERS SQUIBB COMPANY, priority 2013, dated 2017)
Starred links: 1 amine or outer side, 2 acyl side, 3 side chain; linkers in the order of their positions; H or OH if unused. Positions of bridges follow the written chain, without caps; N, C: chain ends. Non-standard residues stand in square brackets, D forms with d. Residues, ends and D or L forms follow the SMILES beside them. X18 = CS(=O)(=O)Nc1ccc(C[C@H](N[*:1])C(=O)[*:2])cc1; Phe(3,4-(OMe)2) = COc1ccc(C[C@H](N)C(=O)O)cc1OC; Phe(3,4-Cl2) = N[C@@H](Cc1ccc(Cl)c(Cl)c1)C(=O)O; Phe(3-CF3) = N[C@@H](Cc1cccc(C(F)(F)F)c1)C(=O)O; Phe(3,4-F2) = N[C@@H](Cc1ccc(F)c(F)c1)C(=O)O; Phe(3-Cl) = N[C@@H](Cc1cccc(Cl)c1)C(=O)O; Phe(3-OMe) = COc1cccc(C[C@H](N)C(=O)O)c1; Ala(2-furyl) = N[C@@H](Cc1ccco1)C(=O)O; Phe(2-Cl) = N[C@@H](Cc1ccccc1Cl)C(=O)O; Phe(3-Me) = Cc1cccc(C[C@H](N)C(=O)O)c1; Pro(4,4-F2) = O=C(O)[C@@H]1CC(F)(F)CN1; Phe(2-Me) = Cc1ccccc1C[C@H](N)C(=O)O; NMeNle = CCCC[C@H](NC)C(=O)O; NMeA = CN[C@@H](C)C(=O)O; Sar = CNCC(=O)O

Columns and labels:
Human PD-L1/PD-1 = biological target: T1, Human PD-L1/PD-1 (Homo sapiens, UniProt Q9NZQ7); assay: HTRF PD-1-Ig/PD-L1-His binding assay (human PD-L1); conditions: cluster symbol; read-out: HTRF IC50 cluster
T1 construct: made in house; host or cells: HEK293T
Method in brief: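 Soluble Fc-fused PD-1 and His-tagged PD-L1 (truncated before the transmembrane region) were combined in dPBS with 0.1% (w/v) BSA and 0.05% (v/v) Tween-20. Binding was read by HTRF using europium cryptate anti-Ig antibody (1 nM final) and APC anti-His antibody (20 nM final).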

[1] = biological target: T2, LK35.2-hPD-L1 cells / PE-labeled PD-1-Ig (Homo sapiens, UniProt Q9NZQ7); assay: LK35.2-hPD-L1 cell binding high-content screening assay; assay type: cell-based; conditions: cluster symbol; cell line of CBA not given (LK35.2-hPD-L1 or 293T-hPD-L1); read-out: CBA IC50 cluster
T2 construct: expressed in transfected cells; host or cells: LK35.2 mouse B cell line
Method in brief: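 Readout: high-content imaging of PE-PD-1-Ig bound to LK35.2-hPD-L1 cells. Cells plated overnight (RPMI/10% FCS); compound + 1 nM PE-PD-1-Ig, 1 h, 37 °C; 3× dPBS wash before imaging.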

T1 sequence (Q9NZQ7 with tags, fused parts or gaps): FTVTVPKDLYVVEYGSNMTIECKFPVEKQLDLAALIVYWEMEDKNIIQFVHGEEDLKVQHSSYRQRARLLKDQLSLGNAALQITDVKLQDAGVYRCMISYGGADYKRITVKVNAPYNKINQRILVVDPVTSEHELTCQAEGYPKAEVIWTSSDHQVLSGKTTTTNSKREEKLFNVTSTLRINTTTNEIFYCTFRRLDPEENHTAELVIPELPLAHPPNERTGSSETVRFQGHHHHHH
T2 sequence (Q9NZQ7 19-290): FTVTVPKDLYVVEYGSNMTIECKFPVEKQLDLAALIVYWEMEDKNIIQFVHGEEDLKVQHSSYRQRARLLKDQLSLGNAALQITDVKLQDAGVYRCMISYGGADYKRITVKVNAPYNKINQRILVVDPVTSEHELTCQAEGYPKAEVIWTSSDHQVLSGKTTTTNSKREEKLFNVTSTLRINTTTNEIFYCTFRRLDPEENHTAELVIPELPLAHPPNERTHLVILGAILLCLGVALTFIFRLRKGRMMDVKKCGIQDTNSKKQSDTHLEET

SMILES | IC50 (Human PD-L1/PD-1) | IC50 [1]
CCCC[C@H]1C(=O)N(C)[C@@H](CCCC)C(=O)N[C@@H](CCCNC(=N)N)C(=O)N[C@H](C(=O)NCC(N)=O)CSCC(=O)N[C@@H](Cc2cccc(C)c2)C(=O)N(C)[C@@H](C)C(=O)N[C@@H](CC(N)=O)C(=O)N2CCC[C@H]2C(=O)N[C@@H](Cc2cnc[nH]2)C(=O)N[C@@H](CC(C)C)C(=O)N(C)CC(=O)N[C@@H](Cc2c[nH]c3ccccc23)C(=O)N[C@@H](CO)C(=O)N[C@@H](Cc2c[nH]c3ccccc23)C(=O)N1C [Example 1097] ({CH2CO}-[Phe(3-Me)][NMeA]NPHL[Sar]WSW[NMeNle][NMeNle]RCG-NH2; thioether N-14) | 6.76 to 30.3 nM | 4.78 to 72.9 nM
CCCC[C@H]1C(=O)N(C)[C@@H](CCCC)C(=O)N[C@@H](CCCNC(=N)N)C(=O)N[C@H](C(=O)NCC(N)=O)CSCC(=O)N[C@@H](Cc2cccc(OC)c2)C(=O)N(C)[C@@H](C)C(=O)N[C@@H](CC(N)=O)C(=O)N2CCC[C@H]2C(=O)N[C@@H](Cc2cnc[nH]2)C(=O)N[C@@H](CC(C)C)C(=O)N(C)CC(=O)N[C@@H](Cc2c[nH]c3ccccc23)C(=O)N[C@@H](CO)C(=O)N[C@@H](Cc2c[nH]c3ccccc23)C(=O)N1C [Example 1098] ({CH2CO}-[Phe(3-OMe)][NMeA]NPHL[Sar]WSW[NMeNle][NMeNle]RCG-NH2; thioether N-14) | 6.76 to 30.3 nM | 4.78 to 72.9 nM
CCCC[C@H]1C(=O)N(C)[C@@H](CCCC)C(=O)N[C@@H](CCCNC(=N)N)C(=O)N[C@H](C(=O)NCC(N)=O)CSCC(=O)N[C@@H](Cc2ccco2)C(=O)N(C)[C@@H](C)C(=O)N[C@@H](CC(N)=O)C(=O)N2CCC[C@H]2C(=O)N[C@@H](Cc2cnc[nH]2)C(=O)N[C@@H](CC(C)C)C(=O)N(C)CC(=O)N[C@@H](Cc2c[nH]c3ccccc23)C(=O)N[C@@H](CO)C(=O)N[C@@H](Cc2c[nH]c3ccccc23)C(=O)N1C [Example 1099] ({CH2CO}-[Ala(2-furyl)][NMeA]NPHL[Sar]WSW[NMeNle][NMeNle]RCG-NH2; thioether N-14) | > 30.5 nM | > 74.3 nM
CCCC[C@H]1C(=O)N(C)[C@@H](CCCC)C(=O)N[C@@H](CCCNC(=N)N)C(=O)N[C@H](C(=O)NCC(N)=O)CSCC(=O)N[C@@H](Cc2ccc(NS(C)(=O)=O)cc2)C(=O)N(C)[C@@H](C)C(=O)N[C@@H](CC(N)=O)C(=O)N2CCC[C@H]2C(=O)N[C@@H](Cc2cnc[nH]2)C(=O)N[C@@H](CC(C)C)C(=O)N(C)CC(=O)N[C@@H](Cc2c[nH]c3ccccc23)C(=O)N[C@@H](CO)C(=O)N[C@@H](Cc2c[nH]c3ccccc23)C(=O)N1C [Example 1100] ({CH2CO}-[X18][NMeA]NPHL[Sar]WSW[NMeNle][NMeNle]RCG-NH2; thioether N-14) | > 30.5 nM | > 74.3 nM
CCCC[C@H]1C(=O)N(C)[C@@H](CCCC)C(=O)N[C@@H](CCCNC(=N)N)C(=O)N[C@H](C(=O)NCC(N)=O)CSCC(=O)N[C@@H](Cc2ccccc2Cl)C(=O)N(C)[C@@H](C)C(=O)N[C@@H](CC(N)=O)C(=O)N2CCC[C@H]2C(=O)N[C@@H](Cc2cnc[nH]2)C(=O)N[C@@H](CC(C)C)C(=O)N(C)CC(=O)N[C@@H](Cc2c[nH]c3ccccc23)C(=O)N[C@@H](CO)C(=O)N[C@@H](Cc2c[nH]c3ccccc23)C(=O)N1C [Example 1101] ({CH2CO}-[Phe(2-Cl)][NMeA]NPHL[Sar]WSW[NMeNle][NMeNle]RCG-NH2; thioether N-14) | > 30.5 nM | > 74.3 nM
CCCC[C@H]1C(=O)N(C)[C@@H](CCCC)C(=O)N[C@@H](CCCNC(=N)N)C(=O)N[C@H](C(=O)NCC(N)=O)CSCC(=O)N[C@@H](Cc2cccc(Cl)c2)C(=O)N(C)[C@@H](C)C(=O)N[C@@H](CC(N)=O)C(=O)N2CCC[C@H]2C(=O)N[C@@H](Cc2cnc[nH]2)C(=O)N[C@@H](CC(C)C)C(=O)N(C)CC(=O)N[C@@H](Cc2c[nH]c3ccccc23)C(=O)N[C@@H](CO)C(=O)N[C@@H](Cc2c[nH]c3ccccc23)C(=O)N1C [Example 1102] ({CH2CO}-[Phe(3-Cl)][NMeA]NPHL[Sar]WSW[NMeNle][NMeNle]RCG-NH2; thioether N-14) | > 30.5 nM | > 74.3 nM
CCCC[C@H]1C(=O)N(C)[C@@H](CCCC)C(=O)N[C@@H](CCCNC(=N)N)C(=O)N[C@H](C(=O)NCC(N)=O)CSCC(=O)N[C@@H](Cc2ccc(Cl)c(Cl)c2)C(=O)N(C)[C@@H](C)C(=O)N[C@@H](CC(N)=O)C(=O)N2CCC[C@H]2C(=O)N[C@@H](Cc2cnc[nH]2)C(=O)N[C@@H](CC(C)C)C(=O)N(C)CC(=O)N[C@@H](Cc2c[nH]c3ccccc23)C(=O)N[C@@H](CO)C(=O)N[C@@H](Cc2c[nH]c3ccccc23)C(=O)N1C [Example 1103] ({CH2CO}-[Phe(3,4-Cl2)][NMeA]NPHL[Sar]WSW[NMeNle][NMeNle]RCG-NH2; thioether N-14) | 6.76 to 30.3 nM | 4.78 to 72.9 nM
CCCC[C@H]1C(=O)N(C)[C@@H](CCCC)C(=O)N[C@@H](CCCNC(=N)N)C(=O)N[C@H](C(=O)NCC(N)=O)CSCC(=O)N[C@@H](Cc2ccc(F)c(F)c2)C(=O)N(C)[C@@H](C)C(=O)N[C@@H](CC(N)=O)C(=O)N2CCC[C@H]2C(=O)N[C@@H](Cc2cnc[nH]2)C(=O)N[C@@H](CC(C)C)C(=O)N(C)CC(=O)N[C@@H](Cc2c[nH]c3ccccc23)C(=O)N[C@@H](CO)C(=O)N[C@@H](Cc2c[nH]c3ccccc23)C(=O)N1C [Example 1104] ({CH2CO}-[Phe(3,4-F2)][NMeA]NPHL[Sar]WSW[NMeNle][NMeNle]RCG-NH2; thioether N-14) | 6.76 to 30.3 nM | 4.78 to 72.9 nM
CCCC[C@H]1C(=O)N(C)[C@@H](CCCC)C(=O)N[C@@H](CCCNC(=N)N)C(=O)N[C@H](C(=O)NCC(N)=O)CSCC(=O)N[C@@H](Cc2ccc(OC)c(OC)c2)C(=O)N(C)[C@@H](C)C(=O)N[C@@H](CC(N)=O)C(=O)N2CCC[C@H]2C(=O)N[C@@H](Cc2cnc[nH]2)C(=O)N[C@@H](CC(C)C)C(=O)N(C)CC(=O)N[C@@H](Cc2c[nH]c3ccccc23)C(=O)N[C@@H](CO)C(=O)N[C@@H](Cc2c[nH]c3ccccc23)C(=O)N1C [Example 1105] ({CH2CO}-[Phe(3,4-(OMe)2)][NMeA]NPHL[Sar]WSW[NMeNle][NMeNle]RCG-NH2; thioether N-14) | 6.76 to 30.3 nM | 4.78 to 72.9 nM
CCCC[C@H]1C(=O)N(C)[C@@H](CCCC)C(=O)N[C@@H](CCCNC(=N)N)C(=O)N[C@H](C(=O)NCC(N)=O)CSCC(=O)N[C@@H](Cc2ccccc2C)C(=O)N(C)[C@@H](C)C(=O)N[C@@H](CC(N)=O)C(=O)N2CCC[C@H]2C(=O)N[C@@H](Cc2cnc[nH]2)C(=O)N[C@@H](CC(C)C)C(=O)N(C)CC(=O)N[C@@H](Cc2c[nH]c3ccccc23)C(=O)N[C@@H](CO)C(=O)N[C@@H](Cc2c[nH]c3ccccc23)C(=O)N1C [Example 1106] ({CH2CO}-[Phe(2-Me)][NMeA]NPHL[Sar]WSW[NMeNle][NMeNle]RCG-NH2; thioether N-14) | 6.76 to 30.3 nM | 4.78 to 72.9 nM
CCCC[C@H]1C(=O)N(C)[C@@H](CCCC)C(=O)N[C@@H](CCCNC(=N)N)C(=O)N[C@H](C(=O)NCC(N)=O)CSCC(=O)N[C@@H](Cc2cccc(C(F)(F)F)c2)C(=O)N(C)[C@@H](C)C(=O)N[C@@H](CC(N)=O)C(=O)N2CCC[C@H]2C(=O)N[C@@H](Cc2cnc[nH]2)C(=O)N[C@@H](CC(C)C)C(=O)N(C)CC(=O)N[C@@H](Cc2c[nH]c3ccccc23)C(=O)N[C@@H](CO)C(=O)N[C@@H](Cc2c[nH]c3ccccc23)C(=O)N1C [Example 1107] ({CH2CO}-[Phe(3-CF3)][NMeA]NPHL[Sar]WSW[NMeNle][NMeNle]RCG-NH2; thioether N-14) | > 30.5 nM | > 74.3 nM
CC(C)C[C@@H]1NC(=O)[C@H](Cc2cnc[nH]2)NC(=O)[C@@H]2CCCN2C(=O)[C@H](CC(N)=O)NC(=O)[C@H](C)N(C)C(=O)[C@H](Cc2ccccc2)NC(=O)CSC[C@@H](C(=O)NCC(N)=O)NC(=O)[C@H](CCCNC(=N)N)NC(=O)[C@H](C)N(C)C(=O)[C@H](CCCc2ccccc2)NC(=O)[C@H](Cc2c[nH]c3ccccc23)NC(=O)[C@H](CO)NC(=O)[C@H](Cc2c[nH]c3ccccc23)NC(=O)CN(C)C1=O [Example 1108] (HELM PEPTIDE1{[O=C(C[*:3])[*:2]].F.[meA].N.P.H.L.[Sar].W.S.W.[O=C([C@H](CCCc1ccccc1)N[*:1])[*:2]].[meA].R.C.G.[am]}$PEPTIDE1,PEPTIDE1,1:R3-15:R3$$$V2.0) | > 30.5 nM | > 74.3 nM
CCCC[C@H]1C(=O)N(C)[C@@H](CCCC)C(=O)N[C@@H](CCCNC(=N)N)C(=O)N[C@H](C(=O)NCC(N)=O)CSCC(=O)N[C@@H](Cc2ccccc2)C(=O)N(C)[C@@H](C)C(=O)N[C@@H](CC(N)=O)C(=O)N2CCC[C@H]2C(=O)N[C@@H](Cc2cnc[nH]2)C(=O)N[C@@H](CC(C)C)C(=O)NC(C)(C)C(=O)N[C@@H](Cc2c[nH]c3ccccc23)C(=O)N[C@@H](CO)C(=O)N[C@@H](Cc2c[nH]c3ccccc23)C(=O)N1C [Example 1110] | > 30.5 nM | > 74.3 nM
CCCC[C@H]1C(=O)N(C)[C@@H](CCCC)C(=O)N[C@@H](CCCNC(=N)N)C(=O)N[C@H](C(=O)NCC(N)=O)CSCC(=O)N[C@@H](Cc2ccccc2)C(=O)N(C)[C@@H](C)C(=O)N[C@@H](CC(N)=O)C(=O)N2CC(F)(F)C[C@H]2C(=O)N[C@@H](Cc2cnc[nH]2)C(=O)N[C@@H](CC(C)C)C(=O)N(C)CC(=O)N[C@@H](Cc2c[nH]c3ccccc23)C(=O)N[C@@H](CO)C(=O)N[C@@H](Cc2c[nH]c3ccccc23)C(=O)N1C [Example 1112] ({CH2CO}-F[NMeA]N[Pro(4,4-F2)]HL[Sar]WSW[NMeNle][NMeNle]RCG-NH2; thioether N-14) | > 30.5 nM | > 74.3 nM
